The results in this text go back to patent US10520514B2, “Method for monitoring post-translational modification of protein” (KOREA INSTITUTE OF SCIENCE AND TECHNOLOGY, priority 2017, dated 2019).

Holding throughout (assay type): biochemical
The subject of one experiment is O-glycosylated tau. Briefly: Nanogap biosensor impedance of microbeads bound to tau protein, reacted with O-GlcNAc (CTD110.6) antibody. As to the method:
(§1) A tosylate-treated magnetic bead (Thermo Fisher, Dynabead M-280, diameter 2.8 μm, 14203) and a tau protein binding antibody (abcam, Anti-Tau (Phosphor S262) antibody, ab64193, 50 μl/250 μl) are inserted in a 0.1 M PBS buffer and placed in a 37° C. incubator, and incubated on a roll mixer for 24 hours.
(§2) Next, the magnetic bead bound to the tau protein binding antibody are washed with 0.4% Block ACE (AbD serotec, USA) and blocked with 0.2 M tris buffer. 30 mg/mL of the microbead solution was stored in PBST (Phosphate Buffered Saline with Tween-20, 0.01% Tween-20) containing 0.4% Block Ace.
(§3) The tau protein at a concentration of 5250 ng/mL was diluted 1/10 in various concentrations (0.5 fg/mL to 50 pg/mL) using 0.1% PBST. Tau protein was treated with Thiamet G, an O-glycosylation drug, if necessary.
(§4) The microbead bound to the tau protein binding antibody were diluted to 300 μl/ml using 0.1% PBST, and the tau protein (diluent) and the microbead (diluent) were mixed at a concentration of 1:2 and reacted in a refrigerator for 22 hours.
(§5) Next, the microbead bound to the tau protein is washed twice with 0.1% PBST and washed twice with PBS (Phosphate Buffered Saline). Thereafter, it is diluted to a bead concentration of 60 μl/ml using PBS.
(§6) A microbead (300 μl/ml) bound to tau protein were prepared in the same manner as in Synthesis Example 1.
The microbead is mixed with 10.4 ng of an antibody capable of binding O-glycosylated proteins (Cell signaling, O-GlcNAc (CTD110.6) Mouse mAB, #9875) and reacted in a refrigerator for 22 hours.
The microbead bound to the O-glycosylated tau-binding antibody is washed twice with 0.1% PBST, washed twice with PBS, and diluted to a bead concentration of 60 μl/ml using PBS.
(§7) The samples thus obtained were measured for impedance using a biosensor array (10×10 or 20×20) with an electrode interval of 0.7 μm. […] In addition, impedance change rate is a value (%) obtained by dividing a difference between the impedance Zneg of Neg and the impedance BAT or BAT2 of divided by the impedance Zneg of Neg and multiplied by 100. Impedance change rate difference is defined as a value obtained by subtracting the impedance change rate of BAT from the impedance change rate of BAT2.

Another experiment deals with phosphorylated tau. Kind of experiment: Nanogap biosensor impedance of microbeads bound to tau protein, reacted with AT8 antibody. To be noted: 100 uM Thiamet G, tau protein 0.5 pg/ml. The protocol:
as §1, §2, §3, §4, §5, §6
The microbead is mixed with 10 ng of an antibody capable of binding to phosphorylated tau protein (Thermo Fisher, Phospho-Tau (Ser202, Thr205) Antibody (AT8), MN1020) and reacted in a refrigerator for 22 hours.
The microbead bound to the phosphorylated tau-binding antibody is washed twice with 0.1% PBST, washed twice with PBS, and diluted to a bead concentration of 60 μl/ml using PBS.
The samples thus obtained were measured for impedance using a biosensor array (10×10 or 20×20) with an electrode interval of 0.7 μm. […] In addition, impedance change rate is a value (%) obtained by dividing a difference between the impedance Zneg of Neg and the impedance BAT or BAT2 of divided by the impedance Zneg of Neg and multiplied by 100. […]

The subject of another experiment is tau protein. Kind of experiment: Ratio of impedance change due to phosphorylated tau (P) and O-glycosylated tau (O). To be noted: 100 uM Thiamet G; tau protein 0.5 pg/ml. As to the method:
as §7

The mark [1] stands for this setting: 10 uM Thiamet G, tau protein 0.5 pg/ml, O-GlcNAc.
[2] abbreviates: 30 uM Thiamet G, tau protein 0.5 pg/ml, O-GlcNAc.
Setting [3] is: 100 uM Thiamet G, tau protein 0.5 pg/ml, O-GlcNAc.

In the case of `CCN=C1N[C@@H]2[C@@H](O)[C@H](O)[C@@H](CO)O[C@@H]2S1` [Thiamet G], the BAT-BAT2 is 4.3 MΩ with O-glycosylated tau (setting [1]), 11.6 MΩ in the experiment on O-glycosylated tau (setting [2]), 30.5 MΩ in the experiment with O-glycosylated tau (setting [3]) and 0.59 MΩ in the experiment on phosphorylated tau. Further, the “Impedance change rate difference” value in the experiment with O-glycosylated tau (setting [1]) stood at 1.62%; in the experiment with O-glycosylated tau (setting [2]), 4.39%; in the experiment with O-glycosylated tau (setting [3]), 11.54%; with O-glycosylated tau (100 uM Thiamet G, tau protein 0.5 fg/ml) it was 7.5%; with O-glycosylated tau (100 uM Thiamet G, tau protein 5.2 fg/ml), 20.4%; in the experiment on O-glycosylated tau (100 uM Thiamet G, tau protein 52.4 fg/ml), 28.9%. The “Impedance change rate difference” value came to 32.8% with O-glycosylated tau (100 uM Thiamet G, tau protein 524 fg/ml) and 1.28% in the experiment on phosphorylated tau. Further, in the experiment on O-glycosylated tau (setting [3]), the “O ((BAT-BAT2)/Neg)” value worked out at 0.1154. The “Impedance change rate difference for the microbead combined with O-glycosylated antibody” value with O-glycosylated tau (when the concentration of Thiamet G was increased (Tables 1-1 and 1-2)) is listed as “greatly increased”. Also, in the experiment on phosphorylated tau, the “P ((BAT2-BAT)/Neg)” value came to 0.0128. Further, the P/O in the experiment on tau protein is 0.111.
